Experimental findings from ChEMBL document CHEMBL1134980, “Structure-activity relationships for a series of thiobenzamide influenza fusion inhibitors derived from 1,3,3-trimethyl-5-hydroxy-cyclohexylmethylamine” (Bioorg Med Chem Lett, 2002) are described below.

Molecules are shown by their SMILES. ≈ marks a conversion by molar mass, not a printed value.

Experiment [1] deals with Influenza A virus. The experiment is described as follows: Anti-influenza activity on A/WSN/33 (H1N1 subtype) strain of influenza virus infected on MDCK cells in cell protection assay. It is filed as functional, organism-based.
Experiment [2] relates to MDCK. Nature of the experiment: The concentration causing a 50% reduction in cell viability in the absence of influenza infection on MDCK cells in cell protection assay. The settings on record: Canis lupus familiaris. It is filed as functional.

As a reminder, the EC50 is the midpoint of the concentration-response curve. A high value points to lower potency in that assay. In general, IC50 refers to the concentration needed to halve the response being measured. Read a high IC50 as a need for much substance. What is called CC50 is the concentration that lowers cell viability or growth by half. A high value points to better tolerance by the cells. As for `Cc1ccc(C)c(/C(S)=N/C[C@@]2(C)C[C@@H](O)CC(C)(C)C2)c1`, in experiment [1], the EC50 result is “Not Active” and the IC50 was 1.5 µg/mL (≈ 4.69 µM). In experiment [2], this compound gave a CC50 of 30 µg/mL (≈ 93.9 µM).
On to `COc1ccccc1/C(S)=N/C[C@@]1(C)C[C@@H](O)CC(C)(C)C1`, for which, in experiment [1], the EC50 entry is reported as “Not Active” and the IC50 result is listed as “Not Active”. This compound also showed a CC50 in experiment [2] of 45 µg/mL (≈ 140 µM).
Turning to `Cc1ccc(/C(S)=N/C[C@@]2(C)C[C@H](O)CC(C)(C)C2)c(C)c1`, in experiment [1], it took 0.15 µg/mL (≈ 0.469 µM) to reach a half-maximal effect (EC50) and the IC50 was found to be 0.45 µg/mL (≈ 1.41 µM). For the same compound, the CC50 in experiment [2] came out at 35 µg/mL (≈ 110 µM).
`COC(=O)c1cccc(/C(S)=N/C[C@@]2(C)C[C@H](O)CC(C)(C)C2)c1`: in experiment [1], the EC50 result is on record as “Not Active” and the IC50 result is given as “Not Active”. In experiment [2], this compound yielded a CC50 of 50 µg/mL (≈ 143 µM).
For `CC1(C)C[C@@H](O)C[C@](C)(C/N=C(\S)c2cccc(C#N)c2)C1`, in experiment [1], the EC50 was 2.5 µg/mL (≈ 7.9 µM) and the IC50 entry was “Not Active”. It took 22 µg/mL (≈ 69.5 µM) to reach half-maximal cytotoxicity in experiment [2] (CC50).
The matching figures for `CC1(C)C[C@@H](O)C[C@](C)(C/N=C(\S)c2cccc(Cl)c2)C1`: 0.02 µg/mL (≈ 0.0614 µM), 0.047 µg/mL (≈ 0.144 µM) and 20 µg/mL (≈ 61.4 µM).
In the same order, the values of `Cc1cccc(/C(S)=N/C[C@@]2(C)C[C@@H](O)CC(C)(C)C2)c1` are “Not Active”, 7.5 µg/mL (≈ 24.6 µM) and 20 µg/mL (≈ 65.5 µM).
`CC1(C)C[C@H](O)C[C@](C)(CNC(=O)c2ccccc2O)C1` showed a CC50 in experiment [2] of 70 µg/mL (≈ 240 µM).
On to `CC1(C)C[C@H](O)C[C@](C)(C/N=C(\S)c2cccc(Cl)c2)C1`, for which, in experiment [1], the EC50 entry was “Not Active” and the IC50 worked out at 2.5 µg/mL (≈ 7.67 µM). Moreover, in experiment [2], the midpoint of cytotoxicity, the CC50, lay at 8.5 µg/mL (≈ 26.1 µM).
The matching figures for `CC1(C)C[C@H](O)C[C@](C)(CNC(=O)c2cc(Cl)ccc2O)C1`: 0.06 µg/mL (≈ 0.184 µM), 0.025 µg/mL (≈ 0.0767 µM) and 80 µg/mL (≈ 246 µM).
As for `CC1(C)C[C@H](O)C[C@](C)(CNC(=O)Nc2ccccc2Cl)C1` (relative stereo), the IC50 in experiment [1] was 0.1 µg/mL (≈ 0.308 µM).
In experiment [1], `CC1(C)C[C@H](O)C[C@](C)(C/N=C(\S)c2ccccc2O)C1` showed an EC50 of 4.5 µg/mL (≈ 14.6 µM) and an IC50 of 2.4 µg/mL (≈ 7.81 µM). Moreover, the CC50 in experiment [2] turned out to be 40 µg/mL (≈ 130 µM).
As to `CC1(C)C[C@H](O)C[C@](C)(C/N=C(\S)c2cccc(F)c2)C1`, in experiment [1], the 50% effective concentration (EC50) result is on record as “Not Active” and half-maximal inhibition (IC50) required 5 µg/mL (≈ 16.2 µM). The compound also displayed a CC50 in experiment [2] of 20 µg/mL (≈ 64.6 µM).
Regarding `CC1(C)C[C@H](O)C[C@](C)(C/N=C(\S)c2cccc(C(F)(F)F)c2)C1`, in experiment [1], the EC50 result is “Not Active” and the IC50 was 23 µg/mL (≈ 64 µM). This compound also came in with a CC50 in experiment [2] of 5 µg/mL (≈ 13.9 µM).
Take `CC1(C)C[C@@H](O)C[C@](C)(CNC(=O)Nc2ccccc2Cl)C1`: the IC50 in experiment [1] is 0.1 µg/mL (≈ 0.308 µM).
As for `CC1(C)C[C@@H](O)C[C@](C)(C/N=C(\S)c2cccc(F)c2)C1`, in experiment [1], the midpoint of the response, the EC50, lay at 0.038 µg/mL (≈ 0.123 µM) and half-maximal inhibition (IC50) required 0.19 µg/mL (≈ 0.614 µM). In experiment [2], this compound displayed a CC50 of 70 µg/mL (≈ 226 µM).
On to `Cc1ccc(/C(S)=N/C[C@@]2(C)C[C@H](O)CC(C)(C)C2)cc1`, for which, in experiment [1], the EC50 result was “Not Active” and the IC50 came to 7 µg/mL (≈ 22.9 µM). The CC50 in experiment [2] was 40 µg/mL (≈ 131 µM).
The matching figures for `Cc1ccccc1/C(S)=N/C[C@@]1(C)C[C@@H](O)CC(C)(C)C1`: “Not Active”, 2.4 µg/mL (≈ 7.86 µM) and 2 µg/mL (≈ 6.55 µM).
As to `CC1(C)C[C@@H](O)C[C@](C)(CNC(=O)c2cc(Cl)ccc2O)C1`, in experiment [1], a half-maximal effect (EC50) was put at 0.2 µg/mL (≈ 0.614 µM) and the IC50 amounted to 0.15 µg/mL (≈ 0.46 µM). Moreover, in experiment [2], the CC50 is more than 100 µg/mL.
Regarding `CC1(C)C[C@@H](O)C[C@](C)(C/N=C(\S)c2ccccc2O)C1`, in experiment [1], the EC50 was 2 µg/mL (≈ 6.5 µM) and the midpoint of inhibition, the IC50, lay at 2.4 µg/mL (≈ 7.81 µM). The midpoint of cytotoxicity in experiment [2], the CC50, lay at 40 µg/mL (≈ 130 µM).
In the same order, the values of `Cc1cc(C)cc(/C(S)=N/C[C@@]2(C)C[C@@H](O)CC(C)(C)C2)c1` are “Not Active”, 0.5 µg/mL (≈ 1.56 µM) and 40 µg/mL (≈ 125 µM).
As for `CC1(C)C[C@@H](O)C[C@](C)(C/N=C(\S)c2cccc([N+](=O)[O-])c2)C1`, in experiment [1], the EC50 entry is “Not Active” and the IC50 was found to be 1.8 µg/mL (≈ 5.35 µM). This compound also displayed a CC50 in experiment [2] of 15 µg/mL (≈ 44.6 µM).
In the same order, the values of `Cc1ccc(O)c(C(=O)NC[C@@]2(C)C[C@H](O)CC(C)(C)C2)c1` are 0.15 µg/mL (≈ 0.491 µM), 0.015 µg/mL (≈ 0.0491 µM) and 70 µg/mL (≈ 229 µM).
In experiment [1], `Cc1ccccc1/C(S)=N/C[C@@]1(C)C[C@H](O)CC(C)(C)C1` displayed an EC50 of 0.065 µg/mL (≈ 0.213 µM) and an IC50 of 0.14 µg/mL (≈ 0.458 µM). In experiment [2], the CC50 amounted to 70 µg/mL (≈ 229 µM).
For the compound `Cc1ccc(O)c(/C(S)=N/C[C@@]2(C)C[C@@H](O)CC(C)(C)C2)c1`, in experiment [1], a half-maximal response (EC50) required 0.4 µg/mL (≈ 1.24 µM) and the IC50 was 0.16 µg/mL (≈ 0.498 µM). The same compound showed a CC50 in experiment [2] of 15 µg/mL (≈ 46.7 µM).
With `Cc1ccc(/C(S)=N/C[C@@]2(C)C[C@@H](O)CC(C)(C)C2)cc1`, in experiment [1], the EC50 entry is given as “Not Active” and the IC50 result is reported as “Not Active”. Also, in experiment [2], the CC50 was determined as 25 µg/mL (≈ 81.8 µM).
On to `COc1ccccc1/C(S)=N/C[C@@]1(C)C[C@H](O)CC(C)(C)C1`, for which, in experiment [1], the EC50 was 1 µg/mL (≈ 3.11 µM) and it took 0.5 µg/mL (≈ 1.56 µM) to reach half-maximal inhibition (IC50). Further, in experiment [2], it took 43 µg/mL (≈ 134 µM) to reach half-maximal cytotoxicity (CC50).
For `Cc1cc(C)cc(/C(S)=N/C[C@@]2(C)C[C@H](O)CC(C)(C)C2)c1`, in experiment [1], the midpoint of the response, the EC50, lay at 0.03 µg/mL (≈ 0.0939 µM) and the IC50 came to 0.52 µg/mL (≈ 1.63 µM). In experiment [2], it took 18 µg/mL (≈ 56.3 µM) to reach half-maximal cytotoxicity (CC50).
In experiment [1], `Cc1cccc(/C(S)=N/C[C@@]2(C)C[C@H](O)CC(C)(C)C2)c1` displayed an EC50 of 0.015 µg/mL (≈ 0.0491 µM) and an IC50 of 0.03 µg/mL (≈ 0.0982 µM). The compound further registered a CC50 in experiment [2] of 35 µg/mL (≈ 115 µM).
Turning to `CC1(C)C[C@@H](O)C[C@](C)(CNC(=O)c2ccccc2O)C1`, in experiment [2], it took 90 µg/mL (≈ 309 µM) to reach half-maximal cytotoxicity (CC50).
On to `CC1(C)C[C@@H](O)C[C@](C)(C/N=C(\S)c2cc(Cl)ccc2O)C1`, for which, in experiment [1], it took 1.8 µg/mL (≈ 5.26 µM) to reach a half-maximal effect (EC50) and the IC50 was determined as 1 µg/mL (≈ 2.92 µM). The CC50 in experiment [2] stood at 4 µg/mL (≈ 11.7 µM).
Take `Cc1ccc(/C(S)=N/C[C@@]2(C)C[C@@H](O)CC(C)(C)C2)c(C)c1`: in experiment [1], the EC50 result is listed as “Not Active” and the IC50 result is given as “Not Active”. The compound also came in with a CC50 in experiment [2] of 30 µg/mL (≈ 93.9 µM).
Turning to `CC1(C)C[C@H](O)C[C@](C)(C/N=C(\S)c2ccccc2)C1`, in experiment [1], the EC50 entry is “Not Active” and the IC50 is 3.5 µg/mL (≈ 12 µM). In experiment [2], this compound came in with a CC50 of 50 µg/mL (≈ 172 µM).
The matching figures for `CC1(C)C[C@H](O)C[C@](C)(C/N=C(\S)c2cc(Cl)ccc2O)C1`: 0.9 µg/mL (≈ 2.63 µM), 2.8 µg/mL (≈ 8.19 µM) and 5.5 µg/mL (≈ 16.1 µM).
For the compound `Cc1ccc(O)c(/C(S)=N/C[C@@]2(C)C[C@H](O)CC(C)(C)C2)c1`, in experiment [1], a half-maximal response (EC50) required 0.5 µg/mL (≈ 1.56 µM) and the IC50 came out at 0.33 µg/mL (≈ 1.03 µM). Also, in experiment [2], the CC50 worked out at 20 µg/mL (≈ 62.2 µM).
In experiment [1], `Cc1ccc(O)c(C(=O)NC[C@@]2(C)C[C@@H](O)CC(C)(C)C2)c1` came in with an EC50 of 0.03 µg/mL (≈ 0.0982 µM) and an IC50 of 0.039 µg/mL (≈ 0.128 µM). Besides, the CC50 in experiment [2] was 50 µg/mL (≈ 164 µM).
On to `CC1(C)C[C@@H](O)C[C@](C)(C/N=C(\S)c2cccc(C(F)(F)F)c2)C1`, for which, in experiment [1], a half-maximal response (EC50) required 0.09 µg/mL (≈ 0.25 µM) and the IC50 turned out to be 0.3 µg/mL (≈ 0.835 µM). This compound returned a CC50 in experiment [2] of 15 µg/mL (≈ 41.7 µM).
The matching figures for `Cc1ccc(C)c(/C(S)=N/C[C@@]2(C)C[C@H](O)CC(C)(C)C2)c1`: 0.023 µg/mL (≈ 0.072 µM), 0.08 µg/mL (≈ 0.25 µM) and 45 µg/mL (≈ 141 µM).
Turning to `CC1(C)C[C@@H](O)C[C@](C)(C/N=C(\S)c2ccccc2)C1`, in experiment [1], a half-maximal effect (EC50) was put at 0.05 µg/mL (≈ 0.172 µM) and the IC50 was found to be 0.15 µg/mL (≈ 0.515 µM). In experiment [2], this compound returned a CC50 of 10 µg/mL (≈ 34.3 µM).
